{"source": "patent US8093259B2", "about": "“4-methyl-3-[[4-(3-pyridinyl)-2-pyrimidinyl]amino]-N-[5-(4-methyl-1H-imidazol-1-yl)-3-(trifluoromethyl)phenyl]-benzamide for treatment of melanoma” (Novartis AG, priority 2006, dated 2012)", "key": {"murine EphB4 kinase": {"target": "T1, murine EphB4 kinase (Mus musculus, UniProt P54761)", "T1 construct": "from tissue; host or cells: mouse lung tissue", "T1 sequence (P54761 16-987)": "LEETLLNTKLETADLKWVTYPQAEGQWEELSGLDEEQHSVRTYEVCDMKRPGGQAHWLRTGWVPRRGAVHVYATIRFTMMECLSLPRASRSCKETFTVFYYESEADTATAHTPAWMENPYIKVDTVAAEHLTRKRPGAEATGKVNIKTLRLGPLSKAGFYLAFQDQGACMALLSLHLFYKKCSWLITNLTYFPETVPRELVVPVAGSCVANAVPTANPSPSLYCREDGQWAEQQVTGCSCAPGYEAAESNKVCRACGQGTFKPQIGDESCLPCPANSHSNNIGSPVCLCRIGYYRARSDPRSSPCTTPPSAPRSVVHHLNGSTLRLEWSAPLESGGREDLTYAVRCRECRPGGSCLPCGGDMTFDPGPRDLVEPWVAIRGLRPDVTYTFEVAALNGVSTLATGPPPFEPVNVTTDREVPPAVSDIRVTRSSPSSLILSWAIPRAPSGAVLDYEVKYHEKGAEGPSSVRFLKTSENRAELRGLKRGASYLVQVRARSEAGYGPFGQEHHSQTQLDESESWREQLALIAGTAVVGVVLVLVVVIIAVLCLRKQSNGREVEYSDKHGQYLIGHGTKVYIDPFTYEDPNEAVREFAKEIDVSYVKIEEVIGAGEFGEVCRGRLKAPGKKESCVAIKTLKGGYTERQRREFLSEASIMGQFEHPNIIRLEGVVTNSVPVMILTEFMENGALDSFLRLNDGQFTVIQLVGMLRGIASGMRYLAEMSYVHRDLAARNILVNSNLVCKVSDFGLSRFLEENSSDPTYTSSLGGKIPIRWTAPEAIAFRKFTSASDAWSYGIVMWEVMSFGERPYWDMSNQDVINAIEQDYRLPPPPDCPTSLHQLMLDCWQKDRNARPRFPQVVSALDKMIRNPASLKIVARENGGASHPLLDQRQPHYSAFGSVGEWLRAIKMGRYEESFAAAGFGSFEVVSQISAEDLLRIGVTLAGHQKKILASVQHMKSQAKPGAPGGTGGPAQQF", "assay": "EphB4 phosphorylation in lung tissue of mice (anti-pY Western blot of immunoprecipitates)", "format": "in vivo", "conditions": "naïve mice, 50 mg/kg p.o.", "description": "(§1) Plasma and lung samples were collected. Lung samples were split into two parts, one lobe was further processed for pharmacokinetic analysis, the other lobe was processed for analysis of phosphorylated EphB4 receptor. For controls, one group of animals was treated for 2 h with NMP (10%) PEG (90%)."}, "[1]": {"conditions": "mouse, in vivo, po, 50 mg/kg", "description": "as §1"}, "EphB4": {"target": "T2, EphB4 (Homo sapiens, UniProt P54760)", "T2 sequence (P54760 16-987)": "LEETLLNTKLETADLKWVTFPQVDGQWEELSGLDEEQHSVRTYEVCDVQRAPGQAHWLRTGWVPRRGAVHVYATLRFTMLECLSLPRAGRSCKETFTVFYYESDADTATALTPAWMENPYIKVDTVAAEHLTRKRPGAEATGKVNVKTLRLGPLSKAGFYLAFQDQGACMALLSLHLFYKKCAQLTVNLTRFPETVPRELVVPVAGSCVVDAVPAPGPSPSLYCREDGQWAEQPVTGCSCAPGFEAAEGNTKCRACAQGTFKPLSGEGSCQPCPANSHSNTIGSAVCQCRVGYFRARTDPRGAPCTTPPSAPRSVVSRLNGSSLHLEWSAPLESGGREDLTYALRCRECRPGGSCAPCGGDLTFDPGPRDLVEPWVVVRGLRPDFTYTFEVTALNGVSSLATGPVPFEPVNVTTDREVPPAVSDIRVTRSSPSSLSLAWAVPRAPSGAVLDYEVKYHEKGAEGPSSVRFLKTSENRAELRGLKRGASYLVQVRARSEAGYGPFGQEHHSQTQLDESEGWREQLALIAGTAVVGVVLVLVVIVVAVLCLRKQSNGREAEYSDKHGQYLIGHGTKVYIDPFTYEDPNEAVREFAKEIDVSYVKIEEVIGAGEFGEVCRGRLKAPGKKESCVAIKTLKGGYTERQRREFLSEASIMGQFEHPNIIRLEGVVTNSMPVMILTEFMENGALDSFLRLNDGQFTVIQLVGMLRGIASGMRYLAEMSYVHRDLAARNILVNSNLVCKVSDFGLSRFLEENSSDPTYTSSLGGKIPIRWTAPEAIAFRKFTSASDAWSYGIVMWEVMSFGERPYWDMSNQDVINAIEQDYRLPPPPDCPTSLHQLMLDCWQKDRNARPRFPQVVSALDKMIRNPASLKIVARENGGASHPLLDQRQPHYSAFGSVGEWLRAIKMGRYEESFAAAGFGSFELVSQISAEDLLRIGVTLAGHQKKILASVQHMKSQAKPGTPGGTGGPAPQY", "assay": "Cell capture ELISA of EphB4 phosphorylation in stably transfected A375 melanoma cells stimulated with ephrinB2", "format": "cell-based", "conditions": "two independent experiments", "method": "A cell capture ELISA has been set up to quantify the amount of phosphorylated EphB4 receptor protein in cell extracts. To this purpose, A375 melanoma cells have been stably transfected with full length EphB4 and EphB4 phosphorylation was induced by the addition of the ligand ephrinB2 in the presence of vanadate. Lysates from unstimulated cells were used as negative controls. […] Measurements were done in duplicates and two independent experiments were performed. Cell lysates were prepared and the receptor protein was captured on ELISA plates. Phosphorylated receptor was detected and quantified using alkaline phosphatase coupled anti-phosphotyrosine antibodies."}}, "note": "Like-named read-outs stand apart in the source and are kept apart here."}
{"molecule": "Cc1cn(-c2cc(NC(=O)c3ccc(C)c(Nc4nccc(-c5cccnc5)n4)c3)cc(C(F)(F)F)c2)cn1", "note": "[4-Methyl-3-[[4-(3-pyridinyl)-2-pyrimidinyl]amino]-N-[5-(4-methyl-1H-imidazol-1-yl)-3-(trifluoromethyl)phenyl] benzamide]", "values": [{"measurement": "Phosphorylation of EphB4 in lung tissue", "setting": "murine EphB4 kinase; 2 h after administration", "value": "nearly abolished"}, {"measurement": "Phosphorylation of EphB4 in lung tissue", "setting": "murine EphB4 kinase; 24 h after administration", "value": "recovers to control levels"}, {"measurement": "Effect on EphB4 protein levels in lung tissue", "setting": "murine EphB4 kinase; both time points (2 h and 24 h)", "value": "No effect"}, {"measurement": "Compound level in lung tissue", "setting": "[1]; 2 h", "value": "40 to 50", "unit": "nmol/g"}, {"measurement": "Compound level in lung tissue", "setting": "[1]; 24 h", "value": 0.7, "unit": "nmol/g"}, {"measurement": "Inhibition of EphB4 phosphorylation", "setting": "EphB4", "value": "dose dependently inhibited EphB4 phosphorylation"}]}
